One experiment addresses T1, Full length human TBK1 (Homo sapiens, UniProt Q9UHD2).
T1 construct: Full length human TBK1 with an N-terminal His-tag; His-tag (N); made in house; host or cells: Sf9 insect cells (baculovirus, pFastBac1)
T1 sequence (Q9UHD2 1-729): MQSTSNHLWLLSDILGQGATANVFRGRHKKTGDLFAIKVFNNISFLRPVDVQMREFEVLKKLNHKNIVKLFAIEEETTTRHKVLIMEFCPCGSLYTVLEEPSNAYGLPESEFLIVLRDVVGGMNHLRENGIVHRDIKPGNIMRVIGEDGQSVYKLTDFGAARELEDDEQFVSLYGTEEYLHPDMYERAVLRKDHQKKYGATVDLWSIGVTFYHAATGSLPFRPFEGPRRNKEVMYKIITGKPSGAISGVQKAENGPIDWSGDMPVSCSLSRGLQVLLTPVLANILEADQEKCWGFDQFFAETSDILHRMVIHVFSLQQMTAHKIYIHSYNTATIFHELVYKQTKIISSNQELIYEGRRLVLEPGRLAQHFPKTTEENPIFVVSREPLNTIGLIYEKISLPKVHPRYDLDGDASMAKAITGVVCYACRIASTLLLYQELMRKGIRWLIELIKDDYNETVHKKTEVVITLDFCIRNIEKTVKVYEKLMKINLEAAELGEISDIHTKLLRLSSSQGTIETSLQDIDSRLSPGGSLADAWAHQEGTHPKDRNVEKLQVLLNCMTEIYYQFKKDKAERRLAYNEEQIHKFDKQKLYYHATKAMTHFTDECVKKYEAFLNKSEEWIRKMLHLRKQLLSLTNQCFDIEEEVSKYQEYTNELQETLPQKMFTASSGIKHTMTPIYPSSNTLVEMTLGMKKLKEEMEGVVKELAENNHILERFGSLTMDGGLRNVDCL
Briefly: Inhibition of TBK1 Enzyme (Caliper microfluidic assay). Format: biochemical. Particulars: 25 μM ATP, 60 min at RT; -log(IC50), IC50 molar; read-out: TBK1 Inhibition (pIC50) (converted). Here is the method: Full length human TBK1 with an N-terminal His-tag was cloned into the pFastBacl vector and was transfected into Sf9 cells. 72 hours later the virus was harvested and amplified through two additional rounds of infections. Then 400 ml of the resulting virus stock was used to infect 10L of Sf9 cells at a density of 2×10^6 cells/ml. Cell pellets were harvested 48 hours post infection and were lysed by freeze-thaw, homogenization and sonication in binding buffer (25 mM Tris pH7.6, 1 M NaCl, 10 mM imidazole, 0.5 mM TCEP) plus 0.1% Triton X-100 and complete protease inhibitor cocktail. The lysate was spun and the supernatant was purified with a HisTrap FF crude and a Superdex 200 pg column.
TBK1 inhibition is determined using a 384 well plate format in buffer containing 20 mM Hepes, pH 7.4, 10 mM MgCl2, 1 mM EDTA, 0.01% Brij-L23, 1 mM DTT. Each test compound is prepared in DMSO using 2.5-fold serial dilutions for 11 data points, which are added to the buffer so that each dilution contains 1% DMSO. To each well is added 2 μL of 1 μm 5FAM-DRHDSGLDSMKDE-NH2 (in buffer), 2 μL of diluted test compound (1% DMSO in buffer), and 5 μL of 3 nM TBK1 and 25 μM ATP (in buffer). The reaction mixture is incubated at RT for 60 min, and quenched by adding 20 mM Hepes, pH 7.4, 10 mM MgCl2, 1 mM EDTA, 0.01% Brij-L23, 1 mM DTT+25 mM EDTA. To quantify the fluorescent-labeled substrate and product following reaction, the test plate is loaded on a Caliper LC-3000, which measures percent of conversion by microfluidic-based separation. Corresponding IC50 values are calculated by non-linear curve fitting of the compound concentrations and percent of inhibition to the standard IC50 equation and reported as pIC50, i.e., −log(IC50), where IC50 is the molar concentration.

The target in the next experiment is T2, TBK1 (Homo sapiens, UniProt Q9UHD2).
T2 construct: host or cells: RA1-ISRE beta-lactamase reporter cells
T2 sequence (Q9UHD2 1-729): T1 sequence (Q9UHD2 1-729)
Put plainly: Inhibition of TBK1 in Cells (TLR3 driven ISRE β-lactamase reporter assay). Format: cell-based. Particulars: poly IC-LMW stimulation 16 hrs; -log(EC50), EC50 molar; read-out: Inhibition of TBK1 in cells pEC50 (EC) (converted). Here is the method:
TBK1 inhibition is determined using a TLR3 driven RA1-ISRE β-lacatamase reporter assay (Life Technologies). In the assay 50,000 cells/well are plated in black clear bottom 384 well plate. Each test compound is prepared in DMSO using 2.5-fold serial dilutions for 11 data points, which are then added to the media. Cells are stimulated with 0.15 mg/ml poly IC-LMW (Invivogen) for 16 hrs. Reporter activity is detected using the LiveBLAzer-FRET B/G CCF4-AM substrate (Life Technologies) and the plate is read using the Spectramax M5 instrument. Corresponding EC50 values are calculated by non-linear curve fitting of the compound concentrations and percent of inhibition to the standard EC50 equation and reported as pEC50, i.e., −log(EC50), where EC50 is the molar concentration.
For orientation: Reporter assays use an easily measured gene product as a stand-in for the process of interest.

The values that follow come from US9598424B2 (Takeda Pharmaceutical Company Limited, priority 2014, dated 2017).

Turning to `O=C(NCC(F)(F)F)c1cc(-c2ccc3nc(NC(=O)C4CC4)cn3c2)sn1` [Example 26, 5-(2-(cyclopropanecarboxamido)imidazo[1,2-a]pyridin-6-yl)-N-(2,2,2-trifluoroethyl)isothiazole-3-carboxamide], the IC50 on Full length human TBK1 was 0.0794 µM. For the same compound, on TBK1, the EC50 was 0.759 µM.
The like results for `O=C(NCC1CCOC1)c1cc(-c2ccc3nc(NC(=O)C4CC4)cn3c2)cs1` (stereo not shown) [Example 75, 4-(2-(cyclopropanecarboxamido)imidazo[1,2-a]pyridin-6-yl)-N-((tetrahydrofuran-3-yl)methyl)thiophene-2-carboxamide] were, in that order, 0.0501 µM and 1.7 µM.
The matching figures for `COCCN(CC(F)F)C(=O)c1cc(-c2ccc3nc(NC(=O)C4CC4)cn3c2)cs1` [Example 121, 4-(2-(cyclopropanecarboxamido)imidazo[1,2-a]pyridin-6-yl)-N-(2,2-difluoroethyl)-N-(2-methoxyethyl)thiophene-2-carboxamide]: 0.0398 µM and 1.12 µM.
Take `O=C(Nc1cn2cc(-c3csc(C(=O)N4CC(F)(F)C[C@H]4CO)n3)ccc2n1)C1CC1` [Example 96, (S)-N-(6-(2-(4,4-difluoro-2-(hydroxymethyl)pyrrolidine-1-carbonyl)thiazol-4-yl)imidazo[1,2-a]pyridin-2-yl)cyclopropanecarboxamide]: the IC50 on Full length human TBK1 is 0.0631 µM. The EC50 on TBK1 is 0.851 µM.
The like results for `O=C(NCC(F)F)c1nc(-c2ccc3nc(NC(=O)C4CC4)cn3n2)cs1` [Example 8, 4-(2-(cyclopropanecarboxamido)imidazo[1,2-b]pyridazin-6-yl)-N-(2,2-difluoroethyl)thiazole-2-carboxamide] were, in that order, 0.2 µM and 9.12 µM.
The matching figures for `O=C(NCC(F)F)c1ccn(-c2cn3cc(NC(=O)C4CC4)nc3cn2)n1` [Example 38, 1-(2-(cyclopropanecarboxamido)imidazo[1,2-a]pyrazin-6-yl)-N-(2,2-difluoroethyl)-1H-pyrazole-3-carboxamide]: 0.0251 µM and 1.17 µM.
The like results for `O=C(Nc1cn2cc(-c3cc(C(=O)N4CCC(F)C4)[nH]n3)ccc2n1)C1CC1` (stereo not shown) [Example 107, N-(6-(5-(3-fluoropyrrolidine-1-carbonyl)-1H-pyrazol-3-yl)imidazo[1,2-a]pyridin-2-yl)cyclopropanecarboxamide] were, in that order, 0.0631 µM and 2.75 µM.
As for `CC(C)CNC(=O)c1cc(-c2ccc3nc(NC(=O)C4CC4)cn3c2)cs1` [Example 63, 4-(2-(cyclopropanecarboxamido)imidazo[1,2-a]pyridin-6-yl)-N-isobutylthiophene-2-carboxamide], on Full length human TBK1, the IC50 is 0.0158 µM. The EC50 on TBK1 was 0.372 µM.
In the case of `O=C(Nc1cn2cc(-c3csc(C(=O)N4CCC[C@@H]4C(F)(F)F)c3)ccc2n1)C1CC1` [Example 62, (R)-N-(6-(5-(2-(trifluoromethyl)pyrrolidine-1-carbonyl)thiophen-3-yl)imidazo[1,2-a]pyridin-2-yl)cyclopropanecarboxamide], at Full length human TBK1, the IC50 was 0.00398 µM. Moreover, the EC50 on TBK1 is 0.0741 µM.
The like results for `O=C(Nc1cn2cc(-c3csc(C(=O)N4CC(CO)C4)n3)ccc2n1)C1CC1` [Example 124, N-(6-(2-(3-(hydroxymethyl)azetidine-1-carbonyl)thiazol-4-yl)imidazo[1,2-a]pyridin-2-yl)cyclopropanecarboxamide] were, in that order, 0.251 µM and 2.14 µM.
Consider `CC(=O)N1CCC(NC(=O)c2cc(-c3ccc4nc(NC(=O)C5CC5)cn4c3)cs2)C1` (stereo not shown) [Example 79, N-(1-acetylpyrrolidin-3-yl)-4-(2-(cyclopropanecarboxamido)imidazo[1,2-a]pyridin-6-yl)thiophene-2-carboxamide], for which the IC50 on Full length human TBK1 was 0.0794 µM. Also, at TBK1, the EC50 was 22.9 µM.
For `CC(C)C(NC(=O)c1cc(-c2ccc3nc(NC(=O)C4CC4)cn3c2)cs1)C(F)(F)F` (stereo not shown) [Example 117, 4-(2-(cyclopropanecarboxamido)imidazo[1,2-a]pyridin-6-yl)-N-(1,1,1-trifluoro-3-methylbutan-2-yl)thiophene-2-carboxamide], at Full length human TBK1, the IC50 was 0.0501 µM. For the same compound, the EC50 on TBK1 was 6.46 µM.
The like results for `O=C(NC1CCOCC1)c1cc(-c2ccc3nc(NC(=O)C4CC4)cn3c2)cs1` [Example 66, 4-(2-(cyclopropanecarboxamido)imidazo[1,2-a]pyridin-6-yl)-N-(tetrahydro-2H-pyran-4-yl)thiophene-2-carboxamide] were, in that order, 0.1 µM and 2.04 µM.
The matching figures for `O=C(Nc1cn2cc(-c3csc(C(=O)N(CCO)CC(F)(F)F)c3)ccc2n1)C1CC1` [Example 120, 4-(2-(cyclopropanecarboxamido)imidazo[1,2-a]pyridin-6-yl)-N-(2-hydroxyethyl)-N-(2,2,2-trifluoroethyl)thiophene-2-carboxamide]: 0.158 µM and 0.851 µM.
The matching figures for `O=C(NCC(F)(F)F)c1cc(-c2cn3cc(NC(=O)C4CC4)nc3cn2)cs1` [Example 33, 4-(2-(cyclopropanecarboxamido)imidazo[1,2-a]pyrazin-6-yl)-N-(2,2,2-trifluoroethyl)thiophene-2-carboxamide]: 0.00501 µM and 0.269 µM.
Consider `O=C(Nc1cn2cc(-c3csc(C(=O)N4CC(F)(F)C4)c3)ccc2n1)C1CC1` [Example 77, N-(6-(5-(3,3-difluoroazetidine-1-carbonyl)thiophen-3-yl)imidazo[1,2-a]pyridin-2-yl)cyclopropanecarboxamide], for which the IC50 at Full length human TBK1 is 0.0631 µM. Besides, on TBK1, the EC50 is 1.66 µM.
The like results for `O=C(N[C@H]1CCOC1)c1cc(-c2ccc3nc(NC(=O)C4CC4)cn3c2)[nH]n1` [Example 53, (S)-5-(2-(cyclopropanecarboxamido)imidazo[1,2-a]pyridin-6-yl)-N-(tetrahydrofuran-3-yl)-1H-pyrazole-3-carboxamide] were, in that order, 0.158 µM and 25.1 µM.
The matching figures for `O=C(NC1CCCC1(F)F)c1nc(-c2ccc3nc(NC(=O)C4CC4)cn3c2)cs1` (stereo not shown) [Example 90, 4-(2-(cyclopropanecarboxamido)imidazo[1,2-a]pyridin-6-yl)-N-(2,2-difluorocyclopentyl)thiazole-2-carboxamide]: 0.0398 µM and 1.02 µM.
Consider `O=C(NCC(F)(F)F)c1cc(-c2ccc3nc(NC(=O)C4CC4)cn3c2)[nH]n1` [Example 51, 5-(2-(cyclopropanecarboxamido)imidazo[1,2-a]pyridin-6-yl)-N-(2,2,2-trifluoroethyl)-1H-pyrazole-3-carboxamide], for which the IC50 on Full length human TBK1 was 0.00794 µM. For the same compound, at TBK1, the EC50 is 0.49 µM.
The matching figures for `CC1CCCN1C(=O)c1cc(-c2ccc3nc(NC(=O)C4CC4)cn3c2)n[nH]1` (stereo not shown) [Example 123, N-(6-(5-(2-methylpyrrolidine-1-carbonyl)-1H-pyrazol-3-yl)imidazo[1,2-a]pyridin-2-yl)cyclopropanecarboxamide]: 0.1 µM and 2.19 µM.
